The text below walks through data of US20180072738A1, “SOLVATED FORMS OF A BRUTON'S TYROSINE KINASE INHIBITOR” (Pharmacyclics LLC, priority 2015, published 2018).

In general, EC50 refers to the midpoint of the concentration-response curve.

One data set deals with OCI-Ly10. The data set can be described thus: Growth inhibition of OCI-Ly10 (ABC-DLBCL) cells. The data set is classed as cell-based. The following applies: Homo sapiens.
The next data set relates to OCILy10. The data set can be described thus: Induction of apoptosis in OCI-Ly10 (caspase activation, Annexin-V flow cytometry, sub-G0 fraction). The following applies: increase in sub-G0 fraction. The data set is classed as cell-based.
Data set [1] is described as follows: Storage stability of the crystalline form at 40° C./75% RH (XRPD). The data set is classed as physicochemical. The note with it: for crystalline form after storage: storage at 40° C. and 75% RH, duration not stated. The method, then:
X-Ray powder diffraction patterns were collected on a Bruker AXS C2 GADDS or Bruker AXS D8 diffractometer.
X-Ray Powder Diffraction patterns were collected on a Bruker AXS C2 GADDS diffractometer using Cu Ka radiation (40 kV, 40 mA), automated XYZ stage, laser video microscope for auto-sample positioning and a Hi Star 2-dimensional area detector. X-ray optics consists of a single Gobel multilayer mirror coupled with a pinhole collimator of 0.3 mm. A weekly performance check is carried out using a certified standard NIST 1976 Corundum (flat plate). The beam divergence, i.e. the effective size of the X-ray beam on the sample, was approximately 4 mm. A θ-θ continuous scan mode was employed with a sample-detector distance of 20 cm which gives an effective 2θ range of 3.2°-29.7°. Typically the sample would be exposed to the X-ray beam for 120 seconds. The software used for data collection was GADDS for XP/2000 4.1.43 and the data were analysed and presented using Diffrac Plus EVA v15.0.0.0.
X-Ray Powder Diffraction patterns were collected on a Bruker D8 diffractometer using Cu Ka radiation (40 kV, 40 mA), θ-2θ goniometer, and divergence of V4 and receiving slits, a Ge monochromator and a Lynxeye detector. The instrument is performance checked using a certified Corundum standard (NIST 1976). The software used for data collection was Diffrac Plus XRD Commander v2.6.1 and the data were analysed and presented using Diffrac Plus EVA v15.0.0.0. Samples were run under ambient conditions as flat plate specimens using powder as received. The sample was gently packed into a cavity cut into polished, zero-background (510) silicon wafer. The sample was rotated in its own plane during analysis. The details of the data collection are: • Angular range: 2 to 42° 2θ • Step size: 0.05° 2θ • Collection time: 0.5 s/step

Read-outs that look alike come from different tables or passages of the source.

Turning to `C=CC(=O)N1CCC[C@@H](n2nc(-c3ccc(Oc4ccccc4)cc3)c3c(N)ncnc32)C1` [Compound 1, 1-((R)-3-(4-amino-3-(4-phenoxyphenyl)-1H-pyrazolo[3,4-d]pyrimidin-1-yl)piperidin-1-yl)prop-2-en-1-one], the concentration giving a half-maximal response (EC50) with OCI-Ly10 (OCI-Ly10, 1 hour pulse, read-out: EC50 1 hour pulse (growth of OCI-Ly10)) is 50 nM; with OCI-Ly10 (OCI-Ly10, continuous exposure, read-out: EC50 continuous exposure (growth of OCI-Ly10)) it was 10 nM. Moreover, the induction of apoptosis entry with OCILy10 is “observed”.
Turning to `C=CC(=O)N1CCC[C@@H](n2nc(-c3ccc(Oc4ccccc4)cc3)c3c(N)ncnc32)C1` [listing 1 of 3 here], the Crystallinity after storage entry in data set [1] (one week storage at 40° C./75% RH, XRPD) is “unaffected”.
Regarding `C=CC(=O)N1CCC[C@@H](n2nc(-c3ccc(Oc4ccccc4)cc3)c3c(N)ncnc32)C1` [listing 2 of 3 here], the “crystalline form after storage” value in data set [1] (listed as 1,1,2-trichloroethane solvate of Compound 1) was “changes to a Form A”.
For `C=CC(=O)N1CCC[C@@H](n2nc(-c3ccc(Oc4ccccc4)cc3)c3c(N)ncnc32)C1` [listing 3 of 3 here], the “crystalline form after storage” value in data set [1] (listed as benzyl acetate solvate of Compound 1) is listed as “does not change”.
